Measured values as given in ChEMBL document CHEMBL4837259, “Comprehensive Approach of 19F Nuclear Magnetic Resonance, Enzymatic, and In Silico Methods for Site-Specific Hit Selection and Validation of Fragment Molecules that Inhibit Methionine γ-Lyase Activity” (J Med Chem, 2021).
The source made the active and inactive calls. The rule behind the calls is not given here.

Legend:
[1] = target: T1, L-methionine gamma-lyase (Fusobacterium nucleatum subsp. nucleatum) (UniProt Q8RDT4); experiment: Inhibition of Fusobacterium nucleatum ATCC 25586 recombinant wild type MGL expressed in Escherichia coli BL21 (DE3) assessed as formation of 2-ketobutyrate using L-methionine as substrate by enzymatic assay; set-up: concentration or dose not given beside the values; details: concentration not given here
T1 sequence (whole entry): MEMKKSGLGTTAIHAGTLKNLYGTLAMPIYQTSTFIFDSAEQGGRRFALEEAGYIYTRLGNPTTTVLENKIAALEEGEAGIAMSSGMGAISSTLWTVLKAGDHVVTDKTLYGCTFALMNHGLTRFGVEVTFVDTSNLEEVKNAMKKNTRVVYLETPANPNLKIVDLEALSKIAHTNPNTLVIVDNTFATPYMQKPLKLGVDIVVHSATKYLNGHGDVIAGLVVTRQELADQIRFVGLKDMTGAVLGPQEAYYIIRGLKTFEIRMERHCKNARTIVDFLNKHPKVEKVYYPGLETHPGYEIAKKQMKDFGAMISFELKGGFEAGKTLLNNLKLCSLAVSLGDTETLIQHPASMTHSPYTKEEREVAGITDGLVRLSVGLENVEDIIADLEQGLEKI

Fusobacterium nucleatum [2] = experiment: Inhibition of Fusobacterium nucleatum ATCC 25586 recombinant MGL C113S mutant expressed in Escherichia coli BL21 (DE3) assessed as decrease in signal intensity by measuring recovery ratio by 19F NMR based competition assay relative to wild type; set-up: scale not given: the % may be the effect or the level left
[3] = target: T1, L-methionine gamma-lyase (Fusobacterium nucleatum subsp. nucleatum); experiment: Inhibition of Fusobacterium nucleatum ATCC 25586 recombinant wild type MGL expressed in Escherichia coli BL21 (DE3) assessed as decrease in signal intensity by 19F NMR based competition assay relative to control; set-up: concentration or dose not given beside the values
Fusobacterium nucleatum [4] = experiment: Inhibition of Fusobacterium nucleatum ATCC 25586 recombinant MGL R58A mutant expressed in Escherichia coli BL21 (DE3) assessed as decrease in signal intensity by measuring recovery ratio by 19F NMR based competition assay relative to wild type; set-up: scale not given: the % may be the effect or the level left
Fusobacterium nucleatum [5] = experiment: Inhibition of Fusobacterium nucleatum ATCC 25586 recombinant MGL R373A mutant expressed in Escherichia coli BL21 (DE3) assessed as decrease in signal intensity by measuring recovery ratio by 19F NMR based competition assay relative to wild type; set-up: scale not given: the % may be the effect or the level left
Fusobacterium nucleatum [6] = experiment: Inhibition of Fusobacterium nucleatum ATCC 25586 recombinant MGL R58K mutant expressed in Escherichia coli BL21 (DE3) assessed as decrease in signal intensity by measuring recovery ratio by 19F NMR based competition assay relative to wild type; set-up: scale not given: the % may be the effect or the level left
Fusobacterium nucleatum [7] = experiment: Inhibition of Fusobacterium nucleatum ATCC 25586 recombinant MGL Y111F mutant expressed in Escherichia coli BL21 (DE3) assessed as decrease in signal intensity by measuring recovery ratio by 19F NMR based competition assay relative to wild type; set-up: concentration or dose not given beside the values
Fusobacterium nucleatum [8] = experiment: Inhibition of Fusobacterium nucleatum ATCC 25586 recombinant MGL Y56F mutant expressed in Escherichia coli BL21 (DE3) assessed as decrease in signal intensity by measuring recovery ratio by 19F NMR based competition assay relative to wild type; set-up: concentration or dose not given beside the values
Fusobacterium nucleatum [9] = experiment: Inhibition of Fusobacterium nucleatum ATCC 25586 recombinant MGL K238A mutant expressed in Escherichia coli BL21 (DE3) assessed as decrease in signal intensity by measuring recovery ratio by 19F NMR based competition assay relative to wild type; set-up: concentration or dose not given beside the values
Fusobacterium nucleatum [10] = experiment: Inhibition of Fusobacterium nucleatum ATCC 25586 recombinant MGL R373K mutant expressed in Escherichia coli BL21 (DE3) assessed as decrease in signal intensity by measuring recovery ratio by 19F NMR based competition assay relative to wild type; set-up: concentration or dose not given beside the values

SMILES | inhibition [1] [%] | Activity (Fusobacterium nucleatum [2]) | Activity [3] [%] | Activity (Fusobacterium nucleatum [4]) | Activity (Fusobacterium nucleatum [5]) | Activity (Fusobacterium nucleatum [6]) [%] | Activity (Fusobacterium nucleatum [7]) | Activity (Fusobacterium nucleatum [8]) | Activity (Fusobacterium nucleatum [9]) | Activity (Fusobacterium nucleatum [10])
O=C(O)c1cn(-c2cccc(F)c2)cn1 | -4.1 | Active | 36 | 80% | 80% | 80 | inactive | 80% | inactive | inactive
CC(C)(C)OC(=O)N1CCC(CN)(c2ccccc2F)CC1 | 17.2 | 50% | 77 | 50% | inactive | 50 | Active | 80% | Active | Active
CC(C)(C)OC(=O)N1CCC(C(=O)O)(c2ccc(C(F)(F)F)cc2)CC1 | 12.9 | 50% | 96 | Active | Active | 50 | Active | 80% | 50% | Active
O=C(O)c1cnc(OCC(F)(F)F)cn1 | 4.4 | Active | 49 | 80% | 80% | 80 | Active | 80% | 50% | Active
CC(C)(CC(=O)O)c1ccc(F)cc1 | -3.3 | inactive | 57 | 80% | 80% | 80 | 80% | 80% | 50% | inactive
O=C(O)c1cncc(OCC(F)(F)F)c1 | 9.1 | inactive | 35 | 80% | 50% | 80 | 50% | 80% | Active | Active
O=C(O)c1ccc(OCC(F)(F)F)cn1 | 15 | 80% | 40 | 80% | 80% | 80 | 80% | 80% | 50% | Active
O=C(O)c1ccnc(OC(F)(F)F)c1 | 22.3 | Active | 76 | 80% | 80% | 80 | 50% | 80% | 50% | 50%
O=C(O)c1cn(-c2ccc(F)cc2)cn1 | 6.2 | 50% | 58 | 80% | 80% | 80 | Active | Active | Active | Active
O=C(O)c1cc(C(F)(F)F)nn1Cc1ccccc1 | 14.5 | inactive | 41 | 80% | 50% | 80 | 50% | 50% | Active | 50%
COCCOc1ccc(C(=O)O)cc1C(F)(F)F | 16.2 | 50% | 67 | 80% | 80% | 80 | 80% | 80% | Active | 50%
Nc1cc(F)c(OCC2CCC2)c(F)c1 | 11.6 | 50% | 55 | Active | inactive | 50 | Active | 80% | 50% | inactive
CCOC(=O)c1nc(-c2ccccc2F)no1 | 13.3 | Active | 82 | 50% | 80% | 50 | 50% | 80% | Active | Active
CC(C)(C)OC(=O)N1CCC(CN)(c2cccc(F)c2)CC1 | 16.1 | Active | 65 | Active | inactive | 80 | Active | 50% | Active | Active
Cc1cccc2c(C(C(=O)O)C(F)(F)F)c[nH]c12 (stereo not given) | -5.3 | inactive | 44 | 80% | 50% | 50 | 50% | 80% | 50% | Active
